In the supplement of paper PMC10307832:

Key:
Assay in all cases: relative viability (nuclei count vs DMSO), 5 days (fraction); higher = more cells survive
Nelarabine = compound: COc1nc(N)nc2c1ncn2[C@@H]1O[C@H](CO)[C@@H](O)[C@@H]1O [Nelarabine]
Summary of the method: (§1)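 In 1536-well plates, lung cancer cell lines rested overnight at 37 °C before five library-drug doses (not always all listed), √10 apart, were pinned onto vehicle-anchored plates. Nuclei were counted with MetaXpress from 4× Hoechst images taken after 5 days without medium change. Viability compares treated-well with vehicle-well nuclei as a median over plates, and plates needed control CV below 25% plus at least one doubling to pass.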

Adavosertib = compound: C=CCn1c(=O)c2cnc(Nc3ccc(N4CCN(C)CC4)cc3)nc2n1-c1cccc(C(C)(C)O)n1 [Adavosertib]
Summary of the method: as §1

Adavosertib + Foretinib = compound: C=CCn1c(=O)c2cnc(Nc3ccc(N4CCN(C)CC4)cc3)nc2n1-c1cccc(C(C)(C)O)n1 [Adavosertib] + COc1cc2c(Oc3ccc(NC(=O)C4(C(=O)Nc5ccc(F)cc5)CC4)cc3F)ccnc2cc1OCCCN1CCOCC1 [Foretinib] (partner 0.25 µM)
Summary of the method: (§2)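 Relative viability is defined as nuclei in treated wells over nuclei in vehicle wells. Duplicate plates were run and medians reported. Lung cancer cell lines in 1536-well plates were dosed by pin tool one day after seeding, with one drug or with a fixed anchor-drug dose plus five library-drug doses (not always all listed) in √10 steps, and nuclei were counted after 5 days.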

Adavosertib + Navitoclax = compound: C=CCn1c(=O)c2cnc(Nc3ccc(N4CCN(C)CC4)cc3)nc2n1-c1cccc(C(C)(C)O)n1 [Adavosertib] + CC1(C)CCC(c2ccc(Cl)cc2)=C(CN2CCN(c3ccc(C(=O)NS(=O)(=O)c4ccc(N[C@H](CCN5CCOCC5)CSc5ccccc5)c(S(=O)(=O)C(F)(F)F)c4)cc3)CC2)C1 [Navitoclax] (partner 0.5 µM)
Summary of the method: as §2

Cell Line	relative viability (Nelarabine; 0.01 µM)	relative viability (Nelarabine; 0.03162 µM)	relative viability (Nelarabine; 0.1 µM)	relative viability (Nelarabine; 0.3162 µM)	relative viability (Nelarabine; 1 µM)	relative viability (Adavosertib; 0.01 µM)	relative viability (Adavosertib; 0.03162 µM)	relative viability (Adavosertib; 0.1 µM)	relative viability (Adavosertib; 0.3162 µM)	relative viability (Adavosertib + Foretinib; first compound 0.01 µM)	relative viability (Adavosertib + Foretinib; first compound 0.03162 µM)	relative viability (Adavosertib + Foretinib; first compound 0.1 µM)	relative viability (Adavosertib + Foretinib; first compound 0.3162 µM)	relative viability (Adavosertib + Navitoclax; first compound 0.01 µM)	relative viability (Adavosertib + Navitoclax; first compound 0.03162 µM)	relative viability (Adavosertib + Navitoclax; first compound 0.1 µM)	relative viability (Adavosertib + Navitoclax; first compound 0.3162 µM)
SK-LU-1	1.35	0.885	1.1	1.2	1.18	1.1	1.04	0.886	0.488	0.773	0.831	0.563	0.311	0.759	0.594	0.989	0.238
Calu-6	1.19	1.13	1.04	1.1	1.1	1.03	1.03	1.05	0.6	0.905	0.956	0.91	0.311	0.819	0.898	0.88	0.239
BEN	1.05	1.05	1.02	1.19	1.03	0.886	1.04	1.06	1.09	0.523	0.682	0.566	0.695	0.0632	0.0724	0.0727	0.0601
NCI-H1915	1.15	1.03	1.02	1	1.05	0.999	1.01	1.06	0.996	1.14	1.03	1.2	1.14	0.831	0.766	0.804	0.786
COR-L23	1.49	1.21	0.96	1.06	1.07	1.14	1.02	1.03	0.585	1.02	0.997	1.08	0.644	1.14	1.03	1.14	0.293
NCI-H1975	1.21	1.01	1.14	1.17	1.04	0.971	0.899	0.935	0.759	0.967	0.962	0.878	0.778	1.17	1.25	1.01	0.483
RERF-LC-KJ	1.18	1.09	1.06	1.07	1.02	1.01	0.971	1.02	0.994	0.857	0.844	0.882	0.954	1.01	0.751	0.828	0.952
NCI-H2228	1.17	0.991	–	1.35	0.948	0.994	0.996	0.946	0.616	0.837	1.15	0.686	0.472	0.691	1.41	0.885	0.305
HCC-15	1.16	0.978	1.06	1.07	1.06	0.979	1.05	1.07	1.23	1.04	0.936	1.2	1.25	0.699	0.712	0.801	0.821
EKVX	1.09	0.898	0.857	1.09	0.968	0.975	0.967	0.955	1.1	0.743	1.15	0.755	0.748	0.927	0.929	0.944	1.2
NCI-H2347	1.13	0.904	1.04	1.02	1.01	1.06	1.05	1.09	0.983	0.829	0.926	0.697	0.989	0.811	0.804	0.954	0.791
NCI-H1944	1.15	0.984	1	0.987	0.869	0.953	0.926	0.959	0.807	0.869	0.9	0.842	0.717	1.05	1.02	1.07	1.02
NCI-H1395	0.997	0.821	1.02	0.928	0.842	0.83	0.901	0.887	0.775	0.922	0.932	0.989	0.83	1.15	1.17	1.25	0.986
SK-MES-1	1.15	1.09	1.01	1.09	1.04	0.989	1.01	0.931	0.528	1.02	0.924	0.866	0.731	1.17	1.25	1.31	1.11
ChaGo-K-1	1.05	0.912	0.962	0.964	0.962	0.947	0.995	1.05	0.918	0.856	0.951	0.941	1.02	0.84	0.877	0.934	0.729
NCI-H596	1.05	1.01	1	0.992	1.06	1.05	1.1	0.956	0.931	1.01	1.03	0.87	0.755	0.897	1.01	1.06	0.742
NCI-H3122	1.1	0.929	–	1.06	1.05	0.987	0.95	1.04	1.03	0.982	0.931	0.956	0.996	1.07	1.02	1	1.01
LXF-289	1.11	1.04	1.01	1.05	0.995	1.02	0.988	1.01	1.04	1.01	0.973	0.973	1.03	0.959	1.03	0.992	1.03
